Common to all, as to format: biochemical
Assay [1] has as its target Human PDE4A (Homo sapiens (Human), UniProt P27815). In words: PDE4A Scintillation Proximity Assay (SPA), inhibition of enzyme activity. The following applies: human recombinant enzyme, 1 μM cAMP substrate, 30 min at 25° C., geometric mean of 2-9 determinations unless otherwise indicated, read-out: Human PDE4A FL.
Protocol: (§1) The PDE4A3, PDE4B1, PDE4C1 and PDE4D3 assays use the Scintillation Proximity Assay (SPA) technology to measure the inhibition of human recombinant PDE4A1, PDE4B3, PDE4C1, and PDE4D3 enzyme activity by compounds in vitro. The PDE4A1, PDE4B3, PDE4C1, and PDE4D3 assays are run in parallel using identical parameters, except for the concentration of enzyme (80 pM PDE4A3, 40 pM PDE4B3, 40 pM PDE4C1 and 10 pM PDE4D). […] Reactions are incubated for 30 min at 25° C. The addition of 20 uL of 8 mg/ml yitrium silicate SPA beads (Perkin Elmer) stops the reaction. The plates are sealed (TopSeal, Perkin Elmer) and the beads are allowed to settle for 8 hrs, after which they are read on the Trilux Microbeta overnight.
The target of assay [2] is Human PDE4D (Homo sapiens (Human), UniProt Q08499). In words: PDE4D Scintillation Proximity Assay (SPA), inhibition of enzyme activity. The following applies: human recombinant enzyme, 1 μM cAMP substrate, 30 min at 25° C., geometric mean of 2-9 determinations unless otherwise indicated, read-out: Human PDE4D FL. A general note: SPA uses beads or plates that emit light when radiolabelled molecules are held near them.
Human PDE4D, sequence (Q08499 186-808): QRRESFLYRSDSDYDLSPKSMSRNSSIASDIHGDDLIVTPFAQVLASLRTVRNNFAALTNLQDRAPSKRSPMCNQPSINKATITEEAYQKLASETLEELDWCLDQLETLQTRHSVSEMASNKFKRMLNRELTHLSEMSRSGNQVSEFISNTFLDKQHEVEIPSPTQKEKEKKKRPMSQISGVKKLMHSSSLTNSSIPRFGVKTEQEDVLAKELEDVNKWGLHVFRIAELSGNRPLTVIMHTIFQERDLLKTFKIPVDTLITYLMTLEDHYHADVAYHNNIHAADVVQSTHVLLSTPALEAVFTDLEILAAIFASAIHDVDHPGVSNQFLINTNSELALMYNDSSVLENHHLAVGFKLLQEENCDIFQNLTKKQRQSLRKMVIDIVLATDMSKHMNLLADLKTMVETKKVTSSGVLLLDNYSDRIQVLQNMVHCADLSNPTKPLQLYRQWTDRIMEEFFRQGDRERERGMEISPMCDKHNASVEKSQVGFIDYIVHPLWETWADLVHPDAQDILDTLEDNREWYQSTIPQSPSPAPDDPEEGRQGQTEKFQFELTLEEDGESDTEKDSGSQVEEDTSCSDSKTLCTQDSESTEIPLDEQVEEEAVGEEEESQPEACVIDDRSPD

Assay [3] deals with Human PDE4C (Homo sapiens (Human), UniProt Q08493). The assay is described as follows: PDE4C Scintillation Proximity Assay (SPA), inhibition of enzyme activity. The following applies: human recombinant enzyme, 1 μM cAMP substrate, 30 min at 25° C., geometric mean of 2-9 determinations unless otherwise indicated, read-out: Human PDE4C FL.
Human PDE4C, sequence (Q08493 2-712): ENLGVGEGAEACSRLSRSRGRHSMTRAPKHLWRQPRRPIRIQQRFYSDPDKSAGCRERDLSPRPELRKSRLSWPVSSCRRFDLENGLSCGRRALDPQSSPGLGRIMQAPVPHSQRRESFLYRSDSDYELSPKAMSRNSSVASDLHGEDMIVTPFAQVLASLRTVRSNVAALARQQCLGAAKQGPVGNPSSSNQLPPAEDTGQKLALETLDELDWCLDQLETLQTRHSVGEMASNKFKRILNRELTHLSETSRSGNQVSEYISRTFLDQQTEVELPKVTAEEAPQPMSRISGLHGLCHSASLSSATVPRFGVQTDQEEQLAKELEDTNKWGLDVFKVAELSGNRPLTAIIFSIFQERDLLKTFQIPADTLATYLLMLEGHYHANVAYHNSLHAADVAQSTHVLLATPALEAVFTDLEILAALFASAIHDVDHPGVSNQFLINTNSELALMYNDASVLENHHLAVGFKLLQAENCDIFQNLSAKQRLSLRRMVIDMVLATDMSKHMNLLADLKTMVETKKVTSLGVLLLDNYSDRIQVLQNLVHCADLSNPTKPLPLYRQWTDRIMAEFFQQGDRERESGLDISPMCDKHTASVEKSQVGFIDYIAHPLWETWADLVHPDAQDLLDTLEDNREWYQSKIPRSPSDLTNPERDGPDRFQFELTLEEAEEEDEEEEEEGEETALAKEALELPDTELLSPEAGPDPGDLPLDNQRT
Protocol: as §1

These results are taken from patent US9598421B2, “Imidazopyridazine compounds” (Pfizer Inc., priority 2014, dated 2017).

Human PDE4A, sequence (P27815 other isoform, or with tags, fused parts or gaps): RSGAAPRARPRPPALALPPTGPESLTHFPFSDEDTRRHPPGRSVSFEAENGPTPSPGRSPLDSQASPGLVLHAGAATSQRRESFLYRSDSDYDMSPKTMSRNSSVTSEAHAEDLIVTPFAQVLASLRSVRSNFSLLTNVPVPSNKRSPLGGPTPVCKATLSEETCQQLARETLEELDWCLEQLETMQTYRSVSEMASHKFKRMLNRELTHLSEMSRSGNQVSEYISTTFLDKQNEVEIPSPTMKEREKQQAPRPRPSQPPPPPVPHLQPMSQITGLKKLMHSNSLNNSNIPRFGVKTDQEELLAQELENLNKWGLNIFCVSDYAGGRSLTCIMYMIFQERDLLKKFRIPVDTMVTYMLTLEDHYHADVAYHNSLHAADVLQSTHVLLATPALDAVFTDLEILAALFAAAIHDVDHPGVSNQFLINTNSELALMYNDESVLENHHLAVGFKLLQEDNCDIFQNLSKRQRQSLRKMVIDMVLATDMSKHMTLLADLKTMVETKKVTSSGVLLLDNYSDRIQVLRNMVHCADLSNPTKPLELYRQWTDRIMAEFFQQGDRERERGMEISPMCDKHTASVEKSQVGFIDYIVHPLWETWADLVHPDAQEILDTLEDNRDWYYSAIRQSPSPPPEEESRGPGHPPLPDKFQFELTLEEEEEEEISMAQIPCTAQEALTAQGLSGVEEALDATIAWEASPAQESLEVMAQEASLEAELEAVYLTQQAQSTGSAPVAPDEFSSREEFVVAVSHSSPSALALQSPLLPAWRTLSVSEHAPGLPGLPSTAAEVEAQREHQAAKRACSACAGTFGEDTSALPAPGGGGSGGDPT

Consider `N#Cc1ccc(-c2c(C(=O)N3CCC3)nc3cccnn23)cc1F` [Example 23, 4-[2-(azetidin-1-ylcarbonyl)imidazo[1,2-b]pyridazin-3-yl]-2-fluorobenzonitrile], for which the IC50 in assay [1] stood at 15.1 nM; in assay [2], 4130 nM; in assay [3] it was 45.8 nM.

`N#Cc1cc(F)c(-c2c(C(=O)N3CCC3)nc3cccnn23)cc1F` [Example 24, 4-[2-(azetidin-1-ylcarbonyl)imidazo[1,2-b]pyridazin-3-yl]-2,5-difluorobenzonitrile]: the IC50 in assay [1] was 5.04 nM; in assay [2], above 2150 nM; in assay [3], 59.7 nM.

For `CNC(=O)c1nc2cccnn2c1-c1cc(F)c(Cl)cc1C` [Example 25, 3-(4-chloro-5-fluoro-2-methylphenyl)-N-methylimidazo[1,2-b]pyridazine-2-carboxamide], the IC50 in assay [1] is 38.6 nM; in assay [2], 4970 nM; in assay [3] it was 150 nM.

For the compound `CCCNC(=O)c1nc2cccnn2c1-c1ccc(Cl)cc1` [Example 26, 3-(4-chlorophenyl)-N-propylimidazo[1,2-b]pyridazine-2-carboxamide], the IC50 in assay [1] was found to be 85.5 nM; in assay [2] it was 3800 nM; in assay [3], 111 nM.

For `CCCNC(=O)c1nc2cccnn2c1-c1cc(Cl)cc(Cl)c1` [Example 28, 3-(3,5-dichlorophenyl)-N-propylimidazo[1,2-b]pyridazine-2-carboxamide], the IC50 in assay [1] was determined as 15.6 nM; in assay [2], 393 nM; in assay [3], 49 nM.

Regarding `CCCNC(=O)c1nc2cccnn2c1-c1ccc(Cl)c(F)c1` [Example 29, 3-(4-chloro-3-fluorophenyl)-N-propylimidazo[1,2-b]pyridazine-2-carboxamide], the figures for the IC50 in assay [1], in assay [2] and in assay [3] were 3.48 nM, 409 nM and 13.8 nM, respectively.

With `CC1CC1NC(=O)c1nc2cccnn2c1-c1ccc(Cl)cc1` (stereo not drawn) [Example 30, 3-(4-chlorophenyl)-N-(2-methylcyclopropyl)imidazo[1,2-b]pyridazine-2-carboxamide], the IC50 came out at 11.6 nM in assay [1], 4000 nM in assay [2] and 24.5 nM in assay [3].

On to `COC1CN(C(=O)c2nc3cccnn3c2-c2ccc(Cl)cc2)C1` [Example 31, [3-(4-chlorophenyl)imidazo[1,2-b]pyridazin-2-yl](3-methoxyazetidin-1-yl)methanone], for which the IC50 was 2820 nM in assay [1], below 26200 nM in assay [2] and 5810 nM in assay [3].

As to `CN(C(=O)c1nc2cccnn2c1-c1ccc(Cl)cc1)C1CC1` [Example 32, 3-(4-chlorophenyl)-N-cyclopropyl-N-methylimidazo[1,2-b]pyridazine-2-carboxamide], the figures for the IC50 in assay [1], in assay [2] and in assay [3] were 1030 nM, above 30000 nM and 469 nM, respectively.

Consider `CC1(NC(=O)c2nc3cccnn3c2-c2ccc(Cl)cc2)CC1` [Example 33, 3-(4-chlorophenyl)-N-(1-methylcyclopropyl)imidazo[1,2-b]pyridazine-2-carboxamide], for which the results for the IC50 in assay [1], in assay [2] and in assay [3] were 58.6 nM, 2330 nM and 127 nM, respectively.

As to `O=C(NC1CC1)c1nc2cccnn2c1-c1cc(F)cc(Cl)c1` [Example 35, 3-(3-chloro-5-fluorophenyl)-N-cyclopropylimidazo[1,2-b]pyridazine-2-carboxamide], the IC50 in assay [1] came out at 35.7 nM; in assay [2], 1220 nM; in assay [3], 37 nM.

For the compound `O=C(NC1CC1)c1nc2cccnn2c1-c1cccc(Cl)c1` [Example 36, 3-(3-chlorophenyl)-N-cyclopropylimidazo[1,2-b]pyridazine-2-carboxamide], the figures for the IC50 in assay [1], in assay [2] and in assay [3] were 23.7 nM, 254 nM and 21 nM, respectively.

On to `O=C(NC12CC(C1)C2)c1nc2cccnn2c1-c1ccc(Cl)cc1` [Example 37, N-(bicyclo[1.1.1]pent-1-yl)-3-(4-chlorophenyl)imidazo[1,2-b]pyridazine-2-carboxamide], for which the IC50 came to 127 nM in assay [1], 2570 nM in assay [2] and 161 nM in assay [3].

With `O=C(NC1CC1)c1nc2cccnn2c1-c1ccc2ocnc2c1` [Example 39, 3-(1,3-benzoxazol-5-yl)-N-cyclopropylimidazo[1,2-b]pyridazine-2-carboxamide], the IC50 in assay [1] was found to be 14.8 nM; in assay [2] it was 3820 nM; in assay [3], 67.8 nM.

Turning to `O=C(NC1CC1)c1nc2cccnn2c1-c1ccc(Cl)cc1F` [Example 40, 3-(4-chloro-2-fluorophenyl)-N-cyclopropylimidazo[1,2-b]pyridazine-2-carboxamide], the IC50 in assay [1] stood at 19.6 nM; in assay [2], 9020 nM; in assay [3], 58.1 nM.

Consider `O=C(NC1CC1)c1nc2cccnn2c1-c1ccnc(C(F)(F)F)c1` [Example 42, N-cyclopropyl-3-[2-(trifluoromethyl)pyridin-4-yl]imidazo[1,2-b]pyridazine-2-carboxamide], for which the IC50 is 415 nM in assay [1], below 12200 nM in assay [2] and 357 nM in assay [3].

`O=C(N[C@@H]1C[C@@H]1F)c1nc2cccnn2c1-c1ccc(Cl)cc1` [Example 46, 3-(4-chlorophenyl)-N-[(1R,2S)-2-fluorocyclopropyl]imidazo[1,2-b]pyridazine-2-carboxamide]: the IC50 was 15.2 nM in assay [1], 971 nM in assay [2] and 39.3 nM in assay [3].

As for `O=C(c1nc2cccnn2c1-c1cc(F)c(Cl)c(F)c1)N1CCC1` [Example 47, azetidin-1-yl[3-(4-chloro-3,5-difluorophenyl)imidazo[1,2-b]pyridazin-2-yl]methanone], the IC50 came out at 7.37 nM in assay [1], 334 nM in assay [2] and 23.9 nM in assay [3].

Consider `CCCNC(=O)c1nc2cccnn2c1-c1cncc(Cl)c1` [Example 48, 3-(5-chloropyridin-3-yl)-N-propylimidazo[1,2-b]pyridazine-2-carboxamide], for which the figures for the IC50 in assay [1], in assay [2] and in assay [3] were 768 nM, above 7670 nM and 212 nM, respectively.

Regarding `O=C(c1nc2cccnn2c1-c1ccc2c(c1)CCO2)N1CCC1` [Example 50, azetidin-1-yl[3-(2,3-dihydro-1-benzofuran-5-yl)imidazo[1,2-b]pyridazin-2-yl]methanone], the values for the IC50 in assay [1], in assay [2] and in assay [3] were 28.1 nM, 3140 nM and 235 nM, respectively.

As to `O=C(c1nc2cccnn2c1-c1ccc(Cl)cc1F)N1CCC1` [Example 52, azetidin-1-yl[3-(4-chloro-2-fluorophenyl)imidazo[1,2-b]pyridazin-2-yl]methanone], the IC50 in assay [1] was found to be 24.3 nM; in assay [2], 5510 nM; in assay [3], 113 nM.

Consider `Cc1cc(-c2c(C(=O)N3CCC3)nc3cccnn23)cc(C)c1F` [Example 53, azetidin-1-yl[3-(4-fluoro-3,5-dimethylphenyl)imidazo[1,2-b]pyridazin-2-yl]methanone], for which the IC50 in assay [1] was 17.8 nM; in assay [2], 3110 nM; in assay [3], 153 nM.

Turning to `Cc1ccc(-c2c(C(=O)N3CCC3)nc3cccnn23)c(F)c1` [Example 54, azetidin-1-yl[3-(2-fluoro-4-methylphenyl)imidazo[1,2-b]pyridazin-2-yl]methanone], the values for the IC50 in assay [1], in assay [2] and in assay [3] were 103 nM, above 20000 nM and 136 nM, respectively.

In the case of `COc1ccc(-c2c(C(=O)N3CCC3)nc3cccnn23)cc1F` [Example 55, azetidin-1-yl[3-(3-fluoro-4-methoxyphenyl)imidazo[1,2-b]pyridazin-2-yl]methanone], the IC50 was 176 nM in assay [1], above 20900 nM in assay [2] and above 1550 nM in assay [3].

Take `O=C(c1nc2cccnn2c1-c1ccc(Cl)cc1)N1CC(F)C1` [Example 60, [3-(4-chlorophenyl)imidazo[1,2-b]pyridazin-2-yl](3-fluoroazetidin-1-yl)methanone]: the IC50 in assay [1] is 269 nM; in assay [2] it was above 4930 nM; in assay [3], 287 nM.

Regarding `O=C(c1nc2cccnn2c1-c1ccc(Cl)cc1)N1CC(F)(F)C1` [Example 61, [3-(4-chlorophenyl)imidazo[1,2-b]pyridazin-2-yl](3,3-difluoroazetidin-1-yl)methanone], the IC50 in assay [1] was 144 nM; in assay [2] it was 1930 nM; in assay [3], 126 nM.

Take `O=C(N[C@@H]1C[C@@H]1F)c1nc2cccnn2c1-c1ccc(Cl)cc1F` [Example 68, 3-(4-chloro-2-fluorophenyl)-N-[(1R,2S)-2-fluorocyclopropyl]imidazo[1,2-b]pyridazine-2-carboxamide]: the IC50 in assay [1] is 10.6 nM; in assay [2], 2620 nM; in assay [3] it was 25.1 nM.

With `Cc1cc(Cl)ccc1-c1c(C(=O)N[C@@H]2C[C@@H]2F)nc2cccnn12` [Example 70, 3-(4-chloro-2-methylphenyl)-N-[(1R,2S)-2-fluorocyclopropyl]imidazo[1,2-b]pyridazine-2-carboxamide], the results for the IC50 in assay [1], in assay [2] and in assay [3] were 36.4 nM, 5760 nM and 90 nM, respectively.

As for `Cc1ccc(-c2c(C(=O)N[C@@H]3C[C@@H]3F)nc3cccnn23)cc1Cl` [Example 71, 3-(3-chloro-4-methylphenyl)-N-[(1R,2S)-2-fluorocyclopropyl]imidazo[1,2-b]pyridazine-2-carboxamide], the IC50 in assay [1] is below 0.669 nM; in assay [2] it was 113 nM; in assay [3], 2 nM.

As to `O=C(NC1CC1)c1nc2cccnn2c1-c1ccnc(OC(F)F)c1` [Example 75, N-cyclopropyl-3-[2-(difluoromethoxy)pyridin-4-yl]imidazo[1,2-b]pyridazine-2-carboxamide], the IC50 in assay [1] was 10.5 nM; in assay [2], 104 nM; in assay [3], 24.9 nM.
